Assay results: patent US9592221B2, “Antibacterial agents: aryl myxopyronin derivatives” (priority 2012, dated 2017)
pIC50: −log10 of the molar value. Values after ≈ are worked out from the molar mass of the structure shown.

Columns and labels:
[1] = test system: Staphylococcus aureus ATCC 12600; assay: MIC, spiral gradient endpoint assay, S. aureus ATCC 12600; assay type: cell-based; settings: ATCC12600; Staphylococcus aureus ATCC 12600
[2] = test system: Escherichia coli D21f2tolC; assay: MIC, spiral gradient endpoint assay, E. coli D21f2tolC; assay type: cell-based; settings: Escherichia coli, D21F2TOLC, read-out: MIC E. coli D21f2toIC
[3] = test system: Acinetobacter baumannii ATCC 19606; assay: MIC, spiral gradient endpoint assay, A. baumannii; assay type: cell-based; settings: ATCC19606; Acinetobacter baumannii ATCC 19606
[4] = molecular target: E. coli RNA polymerase σ^70 holoenzyme (Escherichia coli, UniProt P0A8T7+P0A8V2); assay: Fluorescence-detected RNA polymerase assay, E. coli RNA polymerase; assay type: biochemical; settings: read-out: IC50 E. coli RNAP
[5] = molecular target: M. tuberculosis RNA polymerase core enzyme, M. tuberculosis σ^A (Mycobacterium tuberculosis, UniProt P9WGY7+P9WGY9); assay: Fluorescence-detected RNA polymerase assay, M. tuberculosis RNA polymerase; assay type: biochemical; settings: read-out: IC50 M. tuberculosis RNAP
M. tuberculosis RNA polymerase core enzyme, M. tuberculosis σ^A, sequence (P9WGI1 whole entry): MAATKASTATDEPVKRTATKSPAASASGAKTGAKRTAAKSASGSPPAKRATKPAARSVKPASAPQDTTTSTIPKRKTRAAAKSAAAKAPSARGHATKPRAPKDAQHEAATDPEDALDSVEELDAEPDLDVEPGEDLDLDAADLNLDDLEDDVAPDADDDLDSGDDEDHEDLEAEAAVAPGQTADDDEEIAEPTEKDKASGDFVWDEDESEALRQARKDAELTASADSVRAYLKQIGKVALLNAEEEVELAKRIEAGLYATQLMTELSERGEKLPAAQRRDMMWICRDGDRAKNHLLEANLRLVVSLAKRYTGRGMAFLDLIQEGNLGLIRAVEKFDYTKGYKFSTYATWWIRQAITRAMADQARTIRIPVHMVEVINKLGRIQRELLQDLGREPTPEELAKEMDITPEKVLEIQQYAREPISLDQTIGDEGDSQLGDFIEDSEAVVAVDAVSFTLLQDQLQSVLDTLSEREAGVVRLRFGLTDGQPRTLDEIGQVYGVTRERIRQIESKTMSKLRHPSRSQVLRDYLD
M. tuberculosis RNA polymerase core enzyme, M. tuberculosis σ^A, sequence (P9WGY5 whole entry, further chain): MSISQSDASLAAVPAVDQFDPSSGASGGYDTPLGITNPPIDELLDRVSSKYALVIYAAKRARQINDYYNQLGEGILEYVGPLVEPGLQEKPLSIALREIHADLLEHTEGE
M. tuberculosis RNA polymerase core enzyme, M. tuberculosis σ^A, sequence (P9WGY7 whole entry): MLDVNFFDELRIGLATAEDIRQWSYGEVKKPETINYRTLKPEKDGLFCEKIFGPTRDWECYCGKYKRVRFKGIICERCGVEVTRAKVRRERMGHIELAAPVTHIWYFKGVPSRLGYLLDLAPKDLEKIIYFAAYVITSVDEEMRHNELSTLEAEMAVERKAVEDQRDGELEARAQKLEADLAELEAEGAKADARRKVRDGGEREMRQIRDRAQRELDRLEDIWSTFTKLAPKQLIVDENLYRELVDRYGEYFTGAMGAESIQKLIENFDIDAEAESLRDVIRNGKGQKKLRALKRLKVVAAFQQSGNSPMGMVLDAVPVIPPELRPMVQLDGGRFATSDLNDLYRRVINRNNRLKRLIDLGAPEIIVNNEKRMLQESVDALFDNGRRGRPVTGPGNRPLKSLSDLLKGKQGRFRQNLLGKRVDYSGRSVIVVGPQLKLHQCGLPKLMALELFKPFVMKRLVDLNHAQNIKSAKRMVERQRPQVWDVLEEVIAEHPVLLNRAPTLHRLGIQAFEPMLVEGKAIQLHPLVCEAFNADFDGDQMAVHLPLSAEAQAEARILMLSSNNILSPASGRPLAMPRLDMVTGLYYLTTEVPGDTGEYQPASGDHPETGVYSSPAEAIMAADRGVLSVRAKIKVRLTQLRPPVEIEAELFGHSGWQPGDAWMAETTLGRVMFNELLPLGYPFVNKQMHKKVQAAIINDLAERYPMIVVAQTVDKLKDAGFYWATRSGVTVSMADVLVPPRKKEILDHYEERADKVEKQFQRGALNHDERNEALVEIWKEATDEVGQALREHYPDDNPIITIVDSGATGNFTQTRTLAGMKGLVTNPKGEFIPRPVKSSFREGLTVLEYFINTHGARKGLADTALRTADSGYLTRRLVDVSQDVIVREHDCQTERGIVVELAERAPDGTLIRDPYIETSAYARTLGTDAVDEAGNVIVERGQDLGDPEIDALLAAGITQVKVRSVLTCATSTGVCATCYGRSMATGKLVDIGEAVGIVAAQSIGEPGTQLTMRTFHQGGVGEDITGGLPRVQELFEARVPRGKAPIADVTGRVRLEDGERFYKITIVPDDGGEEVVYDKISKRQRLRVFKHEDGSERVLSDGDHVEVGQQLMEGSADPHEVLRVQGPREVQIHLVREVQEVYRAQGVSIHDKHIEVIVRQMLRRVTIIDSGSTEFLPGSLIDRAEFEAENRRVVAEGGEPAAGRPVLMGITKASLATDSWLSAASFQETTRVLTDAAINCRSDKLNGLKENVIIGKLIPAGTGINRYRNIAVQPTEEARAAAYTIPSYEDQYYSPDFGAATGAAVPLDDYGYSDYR
M. tuberculosis RNA polymerase core enzyme, M. tuberculosis σ^A, sequence (P9WGY9 whole entry): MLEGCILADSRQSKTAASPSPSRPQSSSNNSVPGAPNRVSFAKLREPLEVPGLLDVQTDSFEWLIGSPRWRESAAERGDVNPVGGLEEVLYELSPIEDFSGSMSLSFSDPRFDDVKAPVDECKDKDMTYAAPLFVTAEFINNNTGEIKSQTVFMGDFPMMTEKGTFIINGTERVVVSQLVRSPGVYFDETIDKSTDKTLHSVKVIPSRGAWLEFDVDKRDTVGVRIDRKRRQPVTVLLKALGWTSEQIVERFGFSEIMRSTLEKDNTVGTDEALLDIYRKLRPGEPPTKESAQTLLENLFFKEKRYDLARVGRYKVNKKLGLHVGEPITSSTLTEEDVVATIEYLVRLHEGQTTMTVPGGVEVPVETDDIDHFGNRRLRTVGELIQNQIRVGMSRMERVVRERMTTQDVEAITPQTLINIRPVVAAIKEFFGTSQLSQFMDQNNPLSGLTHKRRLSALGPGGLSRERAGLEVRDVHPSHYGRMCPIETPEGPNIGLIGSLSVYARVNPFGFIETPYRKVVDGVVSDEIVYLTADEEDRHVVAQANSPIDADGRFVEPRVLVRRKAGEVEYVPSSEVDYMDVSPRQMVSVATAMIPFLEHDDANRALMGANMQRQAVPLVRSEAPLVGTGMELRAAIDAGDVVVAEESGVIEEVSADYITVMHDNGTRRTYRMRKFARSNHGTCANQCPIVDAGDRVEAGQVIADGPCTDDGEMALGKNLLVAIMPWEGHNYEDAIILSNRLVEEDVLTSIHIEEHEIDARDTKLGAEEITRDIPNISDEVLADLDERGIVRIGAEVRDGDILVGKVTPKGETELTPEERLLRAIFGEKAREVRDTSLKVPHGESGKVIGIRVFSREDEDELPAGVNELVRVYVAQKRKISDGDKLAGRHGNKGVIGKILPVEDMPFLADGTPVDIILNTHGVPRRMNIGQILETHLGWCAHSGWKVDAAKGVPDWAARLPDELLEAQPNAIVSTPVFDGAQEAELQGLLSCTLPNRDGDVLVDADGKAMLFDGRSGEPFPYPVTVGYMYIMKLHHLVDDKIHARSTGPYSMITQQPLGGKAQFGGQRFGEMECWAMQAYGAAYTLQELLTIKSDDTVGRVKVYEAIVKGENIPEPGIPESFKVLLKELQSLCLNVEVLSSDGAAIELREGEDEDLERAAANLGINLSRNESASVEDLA
M. tuberculosis RNA polymerase core enzyme, M. tuberculosis σ^A, sequence (P9WGZ1 whole entry, further chain): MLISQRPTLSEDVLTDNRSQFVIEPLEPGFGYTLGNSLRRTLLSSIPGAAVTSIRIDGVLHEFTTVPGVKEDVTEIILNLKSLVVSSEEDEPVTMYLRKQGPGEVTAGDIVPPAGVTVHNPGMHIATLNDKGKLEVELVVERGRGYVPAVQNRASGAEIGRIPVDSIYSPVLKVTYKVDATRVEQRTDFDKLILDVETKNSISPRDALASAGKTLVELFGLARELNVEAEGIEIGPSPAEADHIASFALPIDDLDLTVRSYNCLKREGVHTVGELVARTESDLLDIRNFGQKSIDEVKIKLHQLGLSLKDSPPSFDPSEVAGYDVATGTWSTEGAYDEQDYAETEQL

[6] = test system: Mycobacterium tuberculosis H37Rv; assay: MIC, microplate Alamar Blue assay, M. tuberculosis; assay type: cell-based
[7] = test system: Yersinia pestis C092; assay: microbe, parasite or virus in culture; assay type: cell-based; settings: Yersinia pestis, C092, read-out: MIC Y. pestis C092
[8] = test system: Bacillus anthracis Vollum 1b; assay: microbe, parasite or virus in culture; assay type: cell-based; settings: Bacillus anthracis, VOLLUM1B, read-out: MIC B. anthracis Vollum-1b
[9] = test system: Burkholderia pseudomallei Human/Blood/OH/US/1994; assay: microbe, parasite or virus in culture; assay type: cell-based; settings: Burkholderia pseudomallei, read-out: MIC B. pseudomallei Human/Blood/OH
[10] = test system: Francisella tularensis SCHU4; assay: microbe, parasite or virus in culture; assay type: cell-based; settings: Francisella tularensis, SCHU4, read-out: MIC F. tularensis SCHU4
[11] = test system: Brucella melitensis 16M; assay: microbe, parasite or virus in culture; assay type: cell-based; settings: Brucella melitensis, 16M, read-out: MIC B. melitensis 16M
[12] = test system: Burkholderia mallei CHN7; assay: microbe, parasite or virus in culture; assay type: cell-based; settings: Burkholderia mallei, CHN7, read-out: MIC B. mallei CHN7

SMILES | MIC [1] | MIC [2] | MIC [3] | pIC50 [4] | pIC50 [5] | MIC [6] | MIC [7] | MIC [8] | MIC [9] | MIC [10] | MIC [11] | MIC [12]
COCc1ccc(C=C(C)C(=O)c2c(O)cc(C(C)CC/C=C/NC(=O)OC)oc2=O)s1 (mixture of isomers) [APY106, methyl ((1E)-5-(4-hydroxy-3-(3-(5-(methoxymethyl)thiophen-2-yl)-2-methylacryloyl)-2-oxo-2H-pyran-6-yl)hex-1-en-1-yl)carbamate] | > 40 µg/mL | 3 µg/mL | > 40 µg/mL | 6.30 | 5.40 | – | – | – | – | – | – | –
COC(=O)N/C=C/CCC(C)c1cc(O)c(C(=O)C(C)=Cc2ccc(OC)s2)c(=O)o1 (mixture of isomers) [APY101, methyl ((1E)-5-(4-hydroxy-3-(3-(5-methoxythiophen-2-yl)-2-methylacryloyl)-2-oxo-2H-pyran-6-yl)hex-1-en-1-yl)carbamate] | > 40 µg/mL | 3 µg/mL | > 40 µg/mL | < 5.22 | < 5.22 | – | – | – | – | – | – | –
COC(=O)N/C=C/CCC(C)c1cc(O)c(C(=O)C(C)=Cc2ccc(CCC(F)(F)F)cc2C)c(=O)o1 (mixture of isomers) [APY127, methyl ((1E)-5-(4-hydroxy-3-(2-methyl-3-(2-methyl-4-(3,3,3-trifluoropropyl)phenyl)acryloyl)-2-oxo-2H-pyran-6-yl)hex-1-en-1-yl)carbamate] | 2 µg/mL | 0.4 µg/mL | > 40 µg/mL | 7.15 | – | 50 µg/mL | 50 µg/mL | 6 µg/mL | 50 µg/mL | > 50 µg/mL | 50 µg/mL | 50 µg/mL
CCCCc1ccc(C=CC(=O)c2c(O)cc(C(C)CC/C=C/NC(=O)OC)oc2=O)s1 (mixture of isomers) [APY36, methyl (E)-5-(3-((E/Z)-3-(5-butylthiophen-2-yl)acryloyl)-4-hydroxy-2-oxo-2H-pyran-6-yl)hex-1-enylcarbamate] | > 40 µg/mL | 0.7 µg/mL | > 40 µg/mL | 6.52 | – | 30 µg/mL | > 50 µg/mL | 6 µg/mL | > 50 µg/mL | 6 µg/mL | > 50 µg/mL | > 50 µg/mL
COCCCc1ccc(C=C(C)C(=O)c2c(O)cc(C(C)CC/C=C/NC(=O)OC)oc2=O)s1 (mixture of isomers) [APY100, methyl ((1E)-5-(4-hydroxy-3-(3-(5-(3-methoxypropyl)thiophen-2-yl)-2-methylacryloyl)-2-oxo-2H-pyran-6-yl)hex-1-en-1-yl)carbamate] | > 40 µg/mL | 1 µg/mL | > 40 µg/mL | 7.22 | 6.00 | – | – | – | – | – | – | –
CCCCOc1ccc(C=C(C)C(=O)c2c(O)cc(C(C)CC/C=C/NC(=O)OC)oc2=O)cc1 (mixture of isomers) [APY39, methyl (E)-5-(3-((E/Z)-3-(4-butoxyphenyl)-2-methylacryloyl)-4-hydroxy-2-oxo-2H-pyran-6-yl)hex-1-enylcarbamate] | 1 µg/mL | 0.2 µg/mL | > 40 µg/mL | 7.10 | – | 3 µg/mL | 30 µg/mL | 3 µg/mL | 50 µg/mL | 30 µg/mL | 0.4 µg/mL | 10 µg/mL
CCC(C)Oc1ccc2c(c1)cc(C=C(C)C(=O)c1c(O)cc(C(C)CC/C=C/NC(=O)OC)oc1=O)n2C (centres unmarked) [APY122, methyl ((1E)-5-(3-(3-(5-(sec-butoxy)-1-methyl-1H-indol-2-yl)-2-methylacryloyl)-4-hydroxy-2-oxo-2H-pyran-6-yl)hex-1-en-1-yl)carbamate] | > 40 µg/mL | 0.5 µg/mL (≈ 0.932 µM) | > 40 µg/mL | 7.00 | – | > 50 µg/mL | > 50 µg/mL | 50 µg/mL (≈ 93.2 µM) | > 50 µg/mL | 50 µg/mL (≈ 93.2 µM) | > 50 µg/mL | > 50 µg/mL
COC(=O)N/C=C/CCC(C)c1cc(O)c(C(=O)C(C)=Cc2ccc(OCCC(F)(F)F)cc2)c(=O)o1 (mixture of isomers) [APY126, methyl ((1E)-5-(4-hydroxy-3-(2-methyl-3-(4-(3,3,3-trifluoropropoxy)phenyl)acryloyl)-2-oxo-2H-pyran-6-yl)hex-1-en-1-yl)carbamate] | 1 µg/mL | 0.3 µg/mL | > 40 µg/mL | 7.10 | – | 6 µg/mL | 30 µg/mL | 3 µg/mL | > 50 µg/mL | > 50 µg/mL | 10 µg/mL | 50 µg/mL
COC(=O)N/C=C/CCC(C)c1cc(O)c(C(=O)C(C)=Cc2ccc(OCC(F)(F)F)cc2)c(=O)o1 (mixture of isomers) [APY117, methyl ((1E)-5-(4-hydroxy-3-(2-methyl-3-(4-(2,2,2-trifluoroethoxy)phenyl)acryloyl)-2-oxo-2H-pyran-6-yl)hex-1-en-1-yl)carbamate] | 2 µg/mL | 0.4 µg/mL | > 40 µg/mL | 7.00 | – | 10 µg/mL | 50 µg/mL | 10 µg/mL | > 50 µg/mL | > 50 µg/mL | 10 µg/mL | 50 µg/mL
COC(=O)N/C=C/CCC(C)c1cc(O)c(C(=O)C(C)=Cc2sc(CC(C)C)cc2Br)c(=O)o1 (mixture of isomers) [APY124, methyl ((1E)-5-(3-(3-(3-bromo-5-isobutylthiophen-2-yl)-2-methylacryloyl)-4-hydroxy-2-oxo-2H-pyran-6-yl)hex-1-en-1-yl)carbamate] | 0.9 µg/mL | 0.3 µg/mL | 6 µg/mL | 8.40 | – | 50 µg/mL | 6 µg/mL | 0.2 µg/mL | 30 µg/mL | 6 µg/mL | 10 µg/mL | 10 µg/mL
CCCOc1ccc(C=C(C)C(=O)c2c(O)cc(C(C)CC/C=C/NC(=O)OC)oc2=O)cc1 (mixture of isomers) [APY40, methyl (E)-5-(4-hydroxy-3-((E/Z)-2-methyl-3-(4-propoxyphenyl)acryloyl)-2-oxo-2H-pyran-6-yl)hex-1-enylcarbamate] | 1 µg/mL | 0.4 µg/mL | 9 µg/mL | 8.00 | – | 6 µg/mL | > 50 µg/mL | 10 µg/mL | > 50 µg/mL | > 50 µg/mL | 3 µg/mL | > 50 µg/mL
COC(=O)N/C=C/CCC(C)c1cc(O)c(C(=O)C(C)=Cc2ccc(CCCO)s2)c(=O)o1 (mixture of isomers) [APY94, methyl ((1E)-5-(4-hydroxy-3-(3-(5-(3-hydroxypropyl)thiophen-2-yl)-2-methylacryloyl)-2-oxo-2H-pyran-6-yl)hex-1-en-1-yl)carbamate] | > 40 µg/mL | 3 µg/mL | > 40 µg/mL | < 5.22 | < 5.22 | – | – | – | – | – | – | –
COC(=O)N/C=C/CCC(C)c1cc(O)c(C(=O)C(C)=Cc2cc3cc(CCC(C)C)ccc3n2C)c(=O)o1 (mixture of isomers) [APY105, methyl ((1E)-5-(4-hydroxy-3-(3-(5-isopentyl-1-methyl-1H-indol-2-yl)-2-methylacryloyl)-2-oxo-2H-pyran-6-yl)hex-1-en-1-yl)carbamate] | > 40 µg/mL | 2 µg/mL | > 40 µg/mL | 7.40 | 5.30 | – | – | – | – | – | – | –
COC(=O)N/C=C/CCC(C)c1cc(O)c(C(=O)C(C)=Cc2ccc(CC3CC3)s2)c(=O)o1 (mixture of isomers) [APY125, methyl ((1E)-5-(3-(3-(5-(cyclopropylmethyl)thiophen-2-yl)-2-methylacryloyl)-4-hydroxy-2-oxo-2H-pyran-6-yl)hex-1-en-1-yl)carbamate] | 1 µg/mL | 0.6 µg/mL | 20 µg/mL | 7.40 | – | 10 µg/mL | 6 µg/mL | 6 µg/mL | 50 µg/mL | > 50 µg/mL | 6 µg/mL | 10 µg/mL
CCCOc1cccc(C=C(C)C(=O)c2c(O)cc(C(C)CC/C=C/NC(=O)OC)oc2=O)c1 (mixture of isomers) [APY43, methyl (E)-5-(4-hydroxy-3-((E/Z)-2-methyl-3-(3-propoxyphenyl)acryloyl)-2-oxo-2H-pyran-6-yl)hex-1-enylcarbamate] | > 40 µg/mL | 0.4 µg/mL | > 40 µg/mL | 6.70 | – | 6 µg/mL | > 50 µg/mL | 10 µg/mL | 50 µg/mL | 30 µg/mL | 3 µg/mL | 50 µg/mL
COC(=O)N/C=C/CCC(C)c1cc(O)c(C(=O)C(C)=Cc2cc(Br)c(CC(C)C)s2)c(=O)o1 (mixture of isomers) [APY120, methyl ((1E)-5-(3-(3-(4-bromo-5-isobutylthiophen-2-yl)-2-methylacryloyl)-4-hydroxy-2-oxo-2H-pyran-6-yl)hex-1-en-1-yl)carbamate] | 1 µg/mL | 0.2 µg/mL | 30 µg/mL | 7.70 | – | > 50 µg/mL | 6 µg/mL | 2 µg/mL | 10 µg/mL | 50 µg/mL | 3 µg/mL | 6 µg/mL
